# Measurements taken from ChEMBL document CHEMBL1201862, “PubChem BioAssay data set” (2004).
# Activity calls are given as the source filed them.
# Assays:
# [1] = molecular target: T1, Type-1 angiotensin II receptor (Homo sapiens, UniProt P30556); test: agonist activity at AGTR1 – cell-based, uHTS hits, selectivity assay for APJ receptor agonist project, dose response (AID 488865); assay type: functional;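 further: beta-arrestin recruitment to AT1 measured by enzyme fragment complementation luminescence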
# T1 sequence (P30556 whole entry): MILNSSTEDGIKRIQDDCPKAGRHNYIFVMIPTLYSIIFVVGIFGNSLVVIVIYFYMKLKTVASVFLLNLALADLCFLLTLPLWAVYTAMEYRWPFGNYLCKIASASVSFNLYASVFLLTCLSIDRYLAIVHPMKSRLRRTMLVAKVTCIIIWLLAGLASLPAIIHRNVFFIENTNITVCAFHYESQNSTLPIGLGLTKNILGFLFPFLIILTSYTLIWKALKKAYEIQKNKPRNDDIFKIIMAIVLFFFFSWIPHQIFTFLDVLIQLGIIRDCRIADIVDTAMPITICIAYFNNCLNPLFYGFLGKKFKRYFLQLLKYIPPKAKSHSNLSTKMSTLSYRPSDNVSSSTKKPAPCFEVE
# [2] = molecular target: T2, Alkaline phosphatase, tissue-nonspecific isozyme (Homo sapiens, UniProt P05186); test: potency against alkaline phosphatase TNAP – biochemical, luminescent, dose response, SAR follow-up (AID 1056)
# T2 sequence (P05186 whole entry): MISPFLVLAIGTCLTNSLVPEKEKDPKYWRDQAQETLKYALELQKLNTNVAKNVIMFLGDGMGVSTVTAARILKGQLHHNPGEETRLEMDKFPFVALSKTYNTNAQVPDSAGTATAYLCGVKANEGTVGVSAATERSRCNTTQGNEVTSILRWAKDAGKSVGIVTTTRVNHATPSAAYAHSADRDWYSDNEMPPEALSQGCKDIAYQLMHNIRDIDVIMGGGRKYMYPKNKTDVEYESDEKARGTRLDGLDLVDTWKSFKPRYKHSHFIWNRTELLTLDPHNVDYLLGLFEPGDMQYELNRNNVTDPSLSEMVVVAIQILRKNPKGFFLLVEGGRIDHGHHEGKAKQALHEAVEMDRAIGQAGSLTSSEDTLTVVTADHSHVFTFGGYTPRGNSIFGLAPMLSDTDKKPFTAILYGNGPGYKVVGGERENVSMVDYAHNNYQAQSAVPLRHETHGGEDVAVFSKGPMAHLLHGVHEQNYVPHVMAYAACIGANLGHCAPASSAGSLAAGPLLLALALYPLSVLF
# [3] = molecular target: Glyceraldehyde-3-phosphate dehydrogenase (Homo sapiens, UniProt P04406)
# [4] = molecular target: Alkaline phosphatase, placental type (Homo sapiens, UniProt P05187); test: human placental alkaline phosphatase inhibition – biochemical, luminescence, confirmation (AID 1512); assay type: functional
# [5] = molecular target: Coagulation factor XII (Homo sapiens, UniProt P00748); assay type: functional;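 further: activated factor XIIa alpha cleaving a fluorogenic AMC peptide substrate; inhibitor potency from loss of enzyme activity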
# [6] = tested on: HEK293; test: cells; assay type: functional, cell-based; conditions: Homo sapiens
# [7] = tested on: HEK293; test: cells; assay type: functional, cell-based; conditions: Homo sapiens; remark: listed apart in the source
# [8] = tested on: HEK293; test: NOD2 signaling inhibitors in MDP-stimulated cells, cell-based, uHTS, luminescence (AID 2001); assay type: functional; conditions: Homo sapiens
# [9] = tested on: HEK293; test: inhibition of NOD1-driven NF-kB reporter – cell-based, luminescence, uHTS, primary screen (AID 1578); assay type: functional; conditions: Homo sapiens
# [10] = tested on: HEK293; test: cells; assay type: functional, cell-based; conditions: Homo sapiens; remark: listed apart in the source
# [11] = molecular target: Nucleotide-binding oligomerization domain-containing protein 2 (Homo sapiens, UniProt Q9HC29); test: inhibition of NOD2-driven NF-kB reporter – cell-based, luminescence, uHTS, HEK293 (AID 1566); assay type: functional
# [12] = molecular target: Lysine-specific demethylase 4C (Homo sapiens, UniProt Q9H3R0); test: inhibition of JMJD2C H3K9me3 demethylation – biochemical, DELFIA europium, cherry-picked samples, dose response (AID 488835); assay type: functional
# [13] = viability of uninfected HEp-2 cells – cell-based, HTS, cytotoxicity control for RSV inhibitor project, dose response (AID 2410); assay type: functional; conditions: human respiratory syncytial virus
# [14] = A Cell Based Secondary Assay To Explore Cytotoxicity of Compounds that Sensitize Mycobacterium Tuberculosis to Beta-Lactam Antibiotics.; assay type: functional
# [15] = molecular target: T3, Dual specificity protein phosphatase 3 (Homo sapiens, UniProt P51452); test: VHR1 phosphatase inhibitors, biochemical (AID 1878)
# [16] = molecular target: T4, Dual specificity protein phosphatase 6 (Rattus norvegicus, UniProt Q64346); test: inhibition of rat DUSP6 enzyme activity – biochemical, in vitro, primary screen (AID 425)
# T4 sequence (Q64346 whole entry): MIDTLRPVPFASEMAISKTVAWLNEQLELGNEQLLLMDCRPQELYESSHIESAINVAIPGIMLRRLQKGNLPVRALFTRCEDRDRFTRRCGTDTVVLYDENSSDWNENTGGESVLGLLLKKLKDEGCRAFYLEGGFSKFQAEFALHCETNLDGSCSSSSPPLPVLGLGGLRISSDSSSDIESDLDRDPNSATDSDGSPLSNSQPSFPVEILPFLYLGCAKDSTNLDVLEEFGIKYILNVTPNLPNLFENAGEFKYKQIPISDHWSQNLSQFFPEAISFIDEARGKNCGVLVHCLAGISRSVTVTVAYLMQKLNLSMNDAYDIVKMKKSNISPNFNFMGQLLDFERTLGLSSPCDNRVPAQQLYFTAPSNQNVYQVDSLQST
# [17] = molecular target: DNA dC->dU-editing enzyme APOBEC-3G (Homo sapiens, UniProt Q9HC16); test: Dose Response confirmation of small molecule APOBEC3G DNA Deaminase Inhibitors via a fluorescence-based single-stranded DNA deaminase assay. [Related pubchem assays (depositor defined):AID493012, AID493028]; assay type: functional
# [18] = molecular target: T3, Dual specificity protein phosphatase 3; test: VHR1 phosphatase inhibitors, primary screen, biochemical, absorbance, uHTS (AID 1654)
# [19] = molecular target: SUMO-activating enzyme (Homo sapiens, UniProt Q9UBT2); test: blockers of UBC9-mediated SUMO conjugation – biochemical, AlphaScreen, SUMOylation inhibitor project, confirmation (AID 2018); assay type: functional
# [20] = decrease of insulin promoter-GFP reporter – imaging, high-content screening, mouse beta cells (AID 1628); assay type: functional; conditions: MIN6
# [21] = Trypanosoma cruzi growth suppression in host cells – NIH3T3 host cells, beta-gal luminescence, confirmation (AID 2044); assay type: functional, cell-based;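 further: intracellular parasites grown in NIH/3T3 mouse fibroblasts as host cells; luminescent beta-galactosidase reporter signal from transgenic T. cruzi replicating inside host cells; inhibitors lower the luminescence signal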
# [22] = NIH3T3 cell viability loss – ATP luminescence, mouse fibroblasts, counter-screen, dose response (AID 2010); assay type: functional, cell-based;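 further: cells exposed to compound for about 90 hours before reading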
# [23] = molecular target: Paired box protein Pax-8 (Homo sapiens, UniProt Q06710); test: PAX8 transcriptional activity inhibition in RMG-I – RMG-I cells, luciferase, cherry-pick, dose response (AID 687027); assay type: functional, cell-based;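 further: luciferase reporter driven by Pax8 target thyroperoxidase promoter measured by SteadyGlo luminescence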
# [24] = tested on: Vero; test: mammalian cell viability reduction – secondary assay, cytotoxicity control for West Nile virus antiviral project, dose response (AID 1650); assay type: functional; conditions: Chlorocebus sabaeus
# [25] = MIN6 cell viability loss – mouse insulinoma, cytotoxicity control, dose response (AID 2122); assay type: functional;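 further: confirmatory high-throughput counterscreen run to flag cytotoxic compounds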
# [26] = molecular target: T5, Ubiquitin-conjugating enzyme E2 N (Homo sapiens, UniProt P61088); assay type: functional
# T5 sequence (P61088 whole entry): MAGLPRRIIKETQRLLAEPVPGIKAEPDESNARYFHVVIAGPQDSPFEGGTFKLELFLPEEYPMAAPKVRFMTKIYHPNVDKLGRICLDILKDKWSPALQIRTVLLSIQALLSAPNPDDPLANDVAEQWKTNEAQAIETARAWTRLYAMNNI
# [27] = molecular target: T5, Ubiquitin-conjugating enzyme E2 N; assay type: functional; remark: listed apart in the source
# [28] = molecular target: T6, Bcl-2-related protein A1 (Mus musculus, UniProt Q07440); assay type: functional;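 further: confirmatory dose–response counterscreen on Bfl-1, used to check hits from a UBC13 polyubiquitin inhibitor campaign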
# T6 sequence (Q07440 whole entry): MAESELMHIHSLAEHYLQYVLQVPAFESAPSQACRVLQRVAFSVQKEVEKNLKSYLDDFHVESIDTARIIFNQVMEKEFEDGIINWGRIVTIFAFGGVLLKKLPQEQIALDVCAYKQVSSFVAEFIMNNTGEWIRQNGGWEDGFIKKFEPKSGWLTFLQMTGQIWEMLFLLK
# [29] = molecular target: Peroxisome proliferator-activated receptor gamma/Nuclear receptor coactivator 2 (Homo sapiens, UniProt P37231); test: (§1) TR-FRET dose response biochemical High Throughput Screening assay for agonists of the steroid receptor coactivator 2 (SRC-2) recruitment by the peroxisome proliferator-activated receptor gamma (PPAR gamma): non-selective agonists. [Related pubchem assays: 1297, 1032 ]; assay type: functional
# [30] = molecular target: Peroxisome proliferator-activated receptor gamma/Nuclear receptor coactivator 3 (Homo sapiens, UniProt P37231); test: as §1, with “3 (SRC-3)” for “2 (SRC-2)”, “1301 (Confirmation screen.), 1048 (Primary screen.)]” for “1297, 1032 ]”; assay type: functional
# [31] = molecular target: Peroxisome proliferator-activated receptor gamma/Nuclear receptor coactivator 1 (Homo sapiens, UniProt P37231); test: as §1, with “1 (SRC-1)” for “2 (SRC-2)”, “assays (depositor defined):AID1300, AID1808, AID504735, AID631]” for “assays: 1297, 1032 ]”; assay type: protein assay
# Glyceraldehyde-3-phosphate dehydrogenase, sequence (P04406 whole entry): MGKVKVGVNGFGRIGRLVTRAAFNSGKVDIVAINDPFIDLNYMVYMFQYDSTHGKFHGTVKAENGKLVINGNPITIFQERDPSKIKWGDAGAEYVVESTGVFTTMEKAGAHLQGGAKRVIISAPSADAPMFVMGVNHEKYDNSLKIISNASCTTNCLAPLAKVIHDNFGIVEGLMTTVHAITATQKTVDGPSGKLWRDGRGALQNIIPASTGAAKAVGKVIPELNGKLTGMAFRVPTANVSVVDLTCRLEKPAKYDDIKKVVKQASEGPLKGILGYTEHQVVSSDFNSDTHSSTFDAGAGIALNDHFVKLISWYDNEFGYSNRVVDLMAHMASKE
# Coagulation factor XII, sequence (P00748 20-372 limits assumed): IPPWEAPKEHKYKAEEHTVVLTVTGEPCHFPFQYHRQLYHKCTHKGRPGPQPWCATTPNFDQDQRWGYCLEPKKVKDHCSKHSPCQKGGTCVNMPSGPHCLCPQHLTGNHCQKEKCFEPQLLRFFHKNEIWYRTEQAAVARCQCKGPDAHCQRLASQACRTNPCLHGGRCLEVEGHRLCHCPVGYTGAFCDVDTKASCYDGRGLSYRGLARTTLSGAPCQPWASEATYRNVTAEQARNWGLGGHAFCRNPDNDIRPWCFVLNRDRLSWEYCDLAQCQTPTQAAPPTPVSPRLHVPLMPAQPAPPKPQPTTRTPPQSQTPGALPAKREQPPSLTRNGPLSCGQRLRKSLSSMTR
# Coagulation factor XII, sequence (P00748 373-615 limits assumed): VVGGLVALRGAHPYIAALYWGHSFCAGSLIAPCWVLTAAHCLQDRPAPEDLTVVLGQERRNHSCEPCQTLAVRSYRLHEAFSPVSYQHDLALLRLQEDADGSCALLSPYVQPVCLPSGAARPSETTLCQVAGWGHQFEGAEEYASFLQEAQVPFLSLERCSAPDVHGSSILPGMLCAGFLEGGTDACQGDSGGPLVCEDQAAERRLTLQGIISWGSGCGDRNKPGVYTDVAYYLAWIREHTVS
# T3 sequence (P51452 whole entry): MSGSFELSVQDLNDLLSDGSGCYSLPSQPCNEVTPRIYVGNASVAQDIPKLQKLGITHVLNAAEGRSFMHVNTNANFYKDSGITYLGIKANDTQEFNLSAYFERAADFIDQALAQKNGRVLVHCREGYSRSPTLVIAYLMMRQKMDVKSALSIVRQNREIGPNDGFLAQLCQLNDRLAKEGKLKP
# Alkaline phosphatase, placental type, sequence (P05187 whole entry): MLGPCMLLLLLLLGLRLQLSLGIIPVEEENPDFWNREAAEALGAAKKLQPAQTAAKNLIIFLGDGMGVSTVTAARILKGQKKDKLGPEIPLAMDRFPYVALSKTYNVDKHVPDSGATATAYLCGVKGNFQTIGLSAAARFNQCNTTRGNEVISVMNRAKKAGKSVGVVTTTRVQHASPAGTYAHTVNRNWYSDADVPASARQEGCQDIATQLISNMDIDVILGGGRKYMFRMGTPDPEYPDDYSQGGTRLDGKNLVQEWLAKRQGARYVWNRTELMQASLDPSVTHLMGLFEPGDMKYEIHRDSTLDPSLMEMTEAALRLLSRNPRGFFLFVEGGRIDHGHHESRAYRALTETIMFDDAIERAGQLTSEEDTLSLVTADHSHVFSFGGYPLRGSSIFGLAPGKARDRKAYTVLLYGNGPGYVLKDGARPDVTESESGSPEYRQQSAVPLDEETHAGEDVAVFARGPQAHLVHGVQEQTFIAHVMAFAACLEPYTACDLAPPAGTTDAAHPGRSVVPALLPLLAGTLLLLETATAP
# Nucleotide-binding oligomerization domain-containing protein 2, sequence (Q9HC29 whole entry, the tested form may be a part): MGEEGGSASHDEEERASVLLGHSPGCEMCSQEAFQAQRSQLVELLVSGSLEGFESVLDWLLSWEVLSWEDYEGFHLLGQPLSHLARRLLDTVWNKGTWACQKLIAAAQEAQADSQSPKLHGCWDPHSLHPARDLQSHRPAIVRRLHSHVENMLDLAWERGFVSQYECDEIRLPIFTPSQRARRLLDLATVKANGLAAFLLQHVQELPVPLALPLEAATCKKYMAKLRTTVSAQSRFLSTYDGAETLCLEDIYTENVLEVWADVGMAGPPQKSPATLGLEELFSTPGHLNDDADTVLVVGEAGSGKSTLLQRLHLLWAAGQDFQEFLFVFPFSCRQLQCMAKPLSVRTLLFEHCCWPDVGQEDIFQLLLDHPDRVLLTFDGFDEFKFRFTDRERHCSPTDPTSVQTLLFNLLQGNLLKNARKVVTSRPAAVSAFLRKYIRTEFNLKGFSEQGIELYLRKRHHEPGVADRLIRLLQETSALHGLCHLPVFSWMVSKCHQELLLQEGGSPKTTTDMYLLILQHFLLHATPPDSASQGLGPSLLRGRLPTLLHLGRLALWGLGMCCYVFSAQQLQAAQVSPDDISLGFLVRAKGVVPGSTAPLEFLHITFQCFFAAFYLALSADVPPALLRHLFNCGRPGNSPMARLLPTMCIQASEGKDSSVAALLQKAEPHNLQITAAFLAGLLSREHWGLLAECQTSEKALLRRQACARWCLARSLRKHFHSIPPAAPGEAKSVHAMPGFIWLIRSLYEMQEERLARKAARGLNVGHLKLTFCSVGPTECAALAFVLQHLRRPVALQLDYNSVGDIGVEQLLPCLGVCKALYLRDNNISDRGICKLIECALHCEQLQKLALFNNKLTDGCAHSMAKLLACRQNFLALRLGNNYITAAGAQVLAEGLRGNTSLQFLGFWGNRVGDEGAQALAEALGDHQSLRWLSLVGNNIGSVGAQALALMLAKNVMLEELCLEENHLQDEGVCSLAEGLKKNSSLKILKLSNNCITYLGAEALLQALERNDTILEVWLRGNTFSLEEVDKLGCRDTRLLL
# DNA dC->dU-editing enzyme APOBEC-3G, sequence (Q9HC16 whole entry): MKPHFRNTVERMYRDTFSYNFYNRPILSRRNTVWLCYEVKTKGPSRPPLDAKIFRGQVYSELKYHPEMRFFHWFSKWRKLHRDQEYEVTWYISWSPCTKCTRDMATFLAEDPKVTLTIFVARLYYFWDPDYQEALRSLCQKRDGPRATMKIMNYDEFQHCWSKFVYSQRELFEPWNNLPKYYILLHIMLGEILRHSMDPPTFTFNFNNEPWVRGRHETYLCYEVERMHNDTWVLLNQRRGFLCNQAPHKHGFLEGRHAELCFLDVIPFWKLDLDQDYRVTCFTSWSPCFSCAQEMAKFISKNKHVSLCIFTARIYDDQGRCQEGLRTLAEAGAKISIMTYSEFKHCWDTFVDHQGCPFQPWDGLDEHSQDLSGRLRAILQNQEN
# Paired box protein Pax-8, sequence (Q06710 whole entry): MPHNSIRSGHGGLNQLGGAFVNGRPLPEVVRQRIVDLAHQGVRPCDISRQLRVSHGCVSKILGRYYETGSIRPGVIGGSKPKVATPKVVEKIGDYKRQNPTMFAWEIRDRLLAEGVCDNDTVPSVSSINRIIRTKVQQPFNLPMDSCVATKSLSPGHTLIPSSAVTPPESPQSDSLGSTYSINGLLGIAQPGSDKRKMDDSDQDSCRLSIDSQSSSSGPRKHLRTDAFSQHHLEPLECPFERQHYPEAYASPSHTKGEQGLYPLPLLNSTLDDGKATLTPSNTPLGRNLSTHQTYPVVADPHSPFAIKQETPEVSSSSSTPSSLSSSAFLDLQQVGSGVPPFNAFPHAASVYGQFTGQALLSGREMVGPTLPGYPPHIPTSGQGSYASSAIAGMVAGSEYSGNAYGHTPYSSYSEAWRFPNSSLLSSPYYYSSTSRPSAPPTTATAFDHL
# SUMO-activating enzyme, sequence (Q9UBE0 whole entry): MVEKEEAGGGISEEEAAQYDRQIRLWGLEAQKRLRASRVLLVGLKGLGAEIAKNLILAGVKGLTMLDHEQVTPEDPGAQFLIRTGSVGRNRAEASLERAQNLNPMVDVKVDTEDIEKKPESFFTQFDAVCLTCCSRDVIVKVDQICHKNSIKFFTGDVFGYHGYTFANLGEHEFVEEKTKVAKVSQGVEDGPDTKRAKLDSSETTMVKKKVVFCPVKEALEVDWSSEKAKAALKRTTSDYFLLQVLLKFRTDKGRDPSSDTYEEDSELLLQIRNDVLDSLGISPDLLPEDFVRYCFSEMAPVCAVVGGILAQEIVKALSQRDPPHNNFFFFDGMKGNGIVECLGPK
# SUMO-activating enzyme, sequence (Q9UBT2 whole entry): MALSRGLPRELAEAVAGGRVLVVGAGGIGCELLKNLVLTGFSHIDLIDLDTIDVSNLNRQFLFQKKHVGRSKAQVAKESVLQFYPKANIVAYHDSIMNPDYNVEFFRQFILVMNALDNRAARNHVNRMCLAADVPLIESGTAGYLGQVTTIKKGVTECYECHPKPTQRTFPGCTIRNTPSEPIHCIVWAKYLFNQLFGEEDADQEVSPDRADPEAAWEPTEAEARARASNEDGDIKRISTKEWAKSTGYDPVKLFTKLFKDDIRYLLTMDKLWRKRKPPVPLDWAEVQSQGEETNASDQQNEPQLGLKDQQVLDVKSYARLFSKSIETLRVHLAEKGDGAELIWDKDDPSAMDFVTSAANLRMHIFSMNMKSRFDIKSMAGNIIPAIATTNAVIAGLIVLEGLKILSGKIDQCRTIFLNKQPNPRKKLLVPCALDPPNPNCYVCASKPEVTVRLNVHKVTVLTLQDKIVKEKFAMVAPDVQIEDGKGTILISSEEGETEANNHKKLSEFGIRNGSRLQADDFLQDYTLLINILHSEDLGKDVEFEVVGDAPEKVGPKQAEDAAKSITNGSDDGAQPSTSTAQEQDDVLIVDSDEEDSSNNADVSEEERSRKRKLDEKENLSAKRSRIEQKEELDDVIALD
compound,measurement,setting,value
CCC(C)NC(=O)CSC1=Nc2ccccc2C2=NC(CC(=O)NCc3ccccc3)C(=O)N12 (centres undefined),EC50,[1],> 100 µM (inactive)
O=C(O)c1cc(-c2ccc(Cl)cc2Cl)[nH]n1,IC50,[2],0.392 µM (active)
same,IC50,[3],> 100 µM (not active)
same,IC50,[4],> 100 µM (inactive)
COc1ccccc1Cc1nc(N)nn1-c1ccccc1,IC50,[2],> 100 µM (inactive)
same,IC50,[3],> 100 µM (not active)
same,IC50,[4],> 100 µM (inactive)
CCOC(=O)c1sc(N(C)C(C)=O)nc1C,IC50,[5],> 50 µM (inactive)
Brc1ccc2ncnc(NCc3ccco3)c2c1,IC50,[6],> 20 µM (inactive)
same,IC50,[7],> 20 µM (inactive)
same,IC50,[8],5.54 µM (active)
same,EC50,[9],3.41 µM (active)
same,IC50,[10],4.57 µM (active)
same,EC50,[11],6.5 µM (active)
Cc1cc(C=C2C(=O)NC(=S)NC2=O)c(C)n1-c1ccc2c(c1)OCO2,AC50,[12],9.41 µM (active)
same,CC50,[13],14.3 µM (active)
same,CC50,[14],> 40 µM (active)
COC(=O)c1sc(NC(=O)c2cc(-c3ccccc3)nc3ccccc23)c(C#N)c1C,IC50,[15],2.08 µM (active)
same,IC50,[16],> 158 µM (not active)
same,IC50,[17],28.6 µM (active)
same,IC50,[18],1.15 µM (active)
O=C(Nc1ccc(N2C(=O)C3C4C=CC(C4)C3C2=O)cc1)Nc1cccnc1 (centres undefined),IC50,[19],> 100 µM (inactive)
COc1ccc(NC(NC(=O)c2cccnc2)C(Cl)(Cl)Cl)cc1 (centres undefined),IC50,[5],> 50 µM (inactive)
O=c1cc(C(Cl)(Cl)Cl)oc2c1ccc1ccccc12,IC50,[20],1.78 µM (active)
same,EC50,[21],0.893 µM (active)
same,EC50,[22],3.32 µM (active)
same,AC50,[23],2.66 µM (active)
same,CC50,[24],5.35 µM (active)
same,IC50,[25],1.28 µM (active)
CCn1c(=O)cc(SCC(=O)N2CCN(C3CCCCC3)CC2)c2ccccc21,IC50,[26],14.5 µM (active)
same,IC50,[27],> 20 µM (inactive)
same,IC50,[28],> 20 µM (inactive)
same,EC50,[29],> 79.4 µM (not active)
same,EC50,[30],> 79.4 µM (not active)
same,EC50,[31],> 79.4 µM (inactive)
Cc1ccc(/C=N/NC(=O)CSc2nnc(-c3ccc(Cl)cc3)n2-c2ccccc2)o1,EC50,[1],> 100 µM (inactive)
NC(=S)N=Nc1c(O)n(CCCl)c2ccccc12,IC50,[26],18 µM (active)
same,IC50,[27],10.8 µM (active)
same,IC50,[28],> 20 µM (inactive)
